Data reported in patent EP0199190A2, “Separating element for separating solid particles, suspended in a gaseous current, by centrifugal force in a cylindrical whirl chamber” (Anton Piller GmbH & Co. KG, priority 1985, dated 1986).

Legend:
[1] = system: ADP induced aggregation; experiment: ADP induced aggregation test ex vivo in the rat, orally; settings: single dose of 100 mg/kg
Procedure: (§1) As already stated, the compounds according to the invention show a marked antiplatelet aggregation activity. Moreover, their toxicity is very low. For example, the acute toxicity of the salt above referred by LM-PT bisulfate, was evaluated in the mouse orally and intravenously. The LD50 were about 400 mg/kg and about 100 mg/kg, respectively. The DPPV (disaggregating power percentage value) was evaluated for LM-PT bisulfate, by the ADP induced aggregation test ex vivo in the rat, orally. For a single dose of 100 mg/kg, the DPPV was 92-96%.

[2] = acute toxicity in the mouse, orally and intravenously; settings: in vivo
Procedure: as §1

Cn1cnc2c1c(=O)n(CCCCC(=O)CN1CCc3sccc3C1)c(=O)n2C [LM-PT bisulfate, N-[2-Reto-6-(3,7-dimethylxanthine-1-yl)hexyl]-4,5,6,7-tetrahydro-thieno[3,2-c]pyridine]
DPPV (disaggregating power percentage value) [1]: 92-96%
LD50 ([2]; iv, intravenously): ~100 mg/kg
LD50 ([2]; po, orally): ~400 mg/kg
